{"source": "paper PMC9655968", "about": "“Synthesis of Novel Bromophenol with Diaryl Methanes—Determination of Their Inhibition Effects on Carbonic Anhydrase and Acetylcholinesterase” (Molecules, 2022)", "assay_type_in_all_cases": "biochemical", "key": {"hCA I": {"target": "hCA I (Homo sapiens, UniProt P00915)", "sequence (P00915 whole entry, canonical isoform)": "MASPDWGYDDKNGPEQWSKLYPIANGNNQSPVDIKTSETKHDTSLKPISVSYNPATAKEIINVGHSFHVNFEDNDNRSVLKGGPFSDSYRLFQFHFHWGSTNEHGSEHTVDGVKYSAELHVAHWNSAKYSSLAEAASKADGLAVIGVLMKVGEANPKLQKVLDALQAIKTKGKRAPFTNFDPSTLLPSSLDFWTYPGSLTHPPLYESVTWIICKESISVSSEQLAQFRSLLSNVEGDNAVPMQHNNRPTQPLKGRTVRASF", "assay": "biochemical", "conditions": "for IC50: esterase method; for Ki: from Lineweaver-Burk graphs, mean ± SD", "protocol": "(§1) […] Both hCA isoforms were purified by using the Sepharose-4B-L-Tyrosine-sulfanilamide affinity technique. Then, the purity of these CA isoenzymes was defined via the SDS-PAGE purity technique.\n(§2) In order to investigate the in vitro inhibitory mechanisms of bromophenols (13–21), kinetic studies were performed at different concentrations of bromophenols and various substrates."}, "hCA II": {"target": "hCA II (Homo sapiens, UniProt P00918)", "assay": "biochemical", "conditions": "for IC50: esterase method; for Ki: from Lineweaver-Burk graphs, mean ± SD", "protocol": "as §1, §2"}, "AChE": {"target": "AChE (Electrophorus electricus, UniProt O42275)", "sequence (O42275 24-633)": "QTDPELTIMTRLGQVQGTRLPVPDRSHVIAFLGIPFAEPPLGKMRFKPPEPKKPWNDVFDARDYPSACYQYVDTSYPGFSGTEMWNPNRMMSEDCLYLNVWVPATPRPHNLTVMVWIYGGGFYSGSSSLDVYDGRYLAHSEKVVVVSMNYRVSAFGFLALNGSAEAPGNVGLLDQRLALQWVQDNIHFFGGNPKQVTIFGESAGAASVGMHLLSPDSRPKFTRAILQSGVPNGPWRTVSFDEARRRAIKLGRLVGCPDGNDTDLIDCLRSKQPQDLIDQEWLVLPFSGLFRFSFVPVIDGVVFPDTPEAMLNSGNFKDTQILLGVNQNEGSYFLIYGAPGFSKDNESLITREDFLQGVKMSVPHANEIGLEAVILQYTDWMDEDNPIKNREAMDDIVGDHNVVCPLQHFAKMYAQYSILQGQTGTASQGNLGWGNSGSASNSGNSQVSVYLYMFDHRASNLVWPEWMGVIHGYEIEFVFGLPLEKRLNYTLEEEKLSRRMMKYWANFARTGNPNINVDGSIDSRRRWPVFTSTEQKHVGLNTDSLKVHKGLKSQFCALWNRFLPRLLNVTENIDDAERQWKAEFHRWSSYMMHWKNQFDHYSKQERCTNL", "assay": "AChE inhibition, Ellman's method at 412 nm, acetylthiocholine iodide substrate", "conditions": "for IC50: Ellman's method; for Ki: from Lineweaver-Burk graphs, mean ± SD", "protocol": "Acetylthiocholine iodide (AChI) was used as substrate, according to a prior study. […]\nas §2"}, "[1]": {"conditions": "19 and 21 compared (hydroxyl instead of methyl)"}}}
{"molecule": "COc1cc(Cc2cc(OC)c(OC)cc2Br)c(OC)cc1Br", "note": "[Compound 15, 1-Bromo-2-(4-bromo-2,5-dimethoxybenzyl)-4,5-dimethoxybenzene]", "values": [{"measurement": "fold decrease in the Ki value, hCA I", "setting": "hCA I; 15 compared with 16 (bromo group at 4th position)", "result": 1.37, "unit": "fold"}, {"measurement": "IC50", "setting": "hCA I", "result": 0.0204, "unit": "µM"}, {"measurement": "Ki", "setting": "hCA I", "result": "0.00935 ± 0.00188", "unit": "µM"}, {"measurement": "IC50", "setting": "hCA II", "result": 0.0151, "unit": "µM"}, {"measurement": "Ki", "setting": "hCA II", "result": "0.00262 ± 0.00013", "unit": "µM"}]}
{"molecule": "Oc1ccc(Cc2cc(O)c(O)cc2Br)c(Br)c1", "note": "[Compound 18, 4-Bromo-5-(2-bromo-4-hydroxybenzyl)benzene-1,2-diol]", "values": [{"measurement": "IC50", "setting": "hCA I", "result": 0.0154, "unit": "µM"}, {"measurement": "Ki", "setting": "hCA I", "result": "0.0125 ± 0.00066", "unit": "µM"}, {"measurement": "IC50", "setting": "hCA II", "result": 0.0114, "unit": "µM"}, {"measurement": "Ki", "setting": "hCA II", "result": "0.00915 ± 0.00136", "unit": "µM"}]}
{"molecule": "Oc1ccc(O)c(Cc2cc(O)c(O)cc2Br)c1", "note": "[Compound 21, 4-Bromo-5-(2,5-dihydroxybenzyl)benzene-1,2-diol]", "values": [{"measurement": "fold increase in the inhibition value, AChE", "setting": "AChE; [1]", "result": 2.67, "unit": "fold"}, {"measurement": "IC50", "setting": "hCA I", "result": 0.0124, "unit": "µM"}, {"measurement": "Ki", "setting": "hCA I", "result": "0.011 ± 0.00383", "unit": "µM"}, {"measurement": "fold increase in the inhibition value, hCA II", "setting": "hCA II; [1]", "result": 3.03, "unit": "fold"}, {"measurement": "IC50", "setting": "hCA II", "result": 0.00745, "unit": "µM"}, {"measurement": "Ki", "setting": "hCA II", "result": "0.00497 ± 0.00059", "unit": "µM"}]}
{"molecule": "COc1cc(Br)c(Cc2ccc(OC)c(OC)c2OC)cc1OC", "note": "[Compound 17, 1-(2-bromo-4,5dimethoxybenzyl)-2,3,4-trimethoxybenzene]", "values": [{"measurement": "IC50", "setting": "hCA I", "result": 0.0277, "unit": "µM"}, {"measurement": "Ki", "setting": "hCA I", "result": "0.0188 ± 0.00497", "unit": "µM"}, {"measurement": "IC50", "setting": "hCA II", "result": 0.0231, "unit": "µM"}, {"measurement": "Ki", "setting": "hCA II", "result": "0.0103 ± 0.00188", "unit": "µM"}]}
{"molecule": "1-Bromo-4,5-dimethoxy-2-(5-methoxy-2-methylbenzyl)benzene [Compound 14]", "values": [{"measurement": "IC50", "setting": "AChE", "result": 0.0119, "unit": "µM"}, {"measurement": "Ki", "setting": "AChE", "result": "0.0116 ± 0.00275", "unit": "µM"}, {"measurement": "fold greater effect on inhibition, hCA I", "setting": "hCA I; 14 (methyl) compared with 16 (methoxy)", "result": 5.06, "unit": "fold"}, {"measurement": "fold difference in the inhibition value, hCA I", "setting": "hCA I; compounds 14 and 19 compared", "result": 8.04, "unit": "fold"}, {"measurement": "IC50", "setting": "hCA I", "result": 0.0198, "unit": "µM"}, {"measurement": "Ki", "setting": "hCA I", "result": "0.00253 ± 0.00025", "unit": "µM"}, {"measurement": "IC50", "setting": "hCA II", "result": 0.0147, "unit": "µM"}, {"measurement": "Ki", "setting": "hCA II", "result": "0.00428 ± 0.00086", "unit": "µM"}]}
{"molecule": "Oc1cc(Br)c(Cc2cc(O)c(Br)cc2O)cc1O", "note": "[Compound 20, 4-Bromo-5-(4-bromo-2,5-dihydroxybenzyl)benzene-1,2-diol]", "values": [{"measurement": "IC50", "setting": "hCA I", "result": 0.0193, "unit": "µM"}, {"measurement": "Ki", "setting": "hCA I", "result": "0.0134 ± 0.00229", "unit": "µM"}, {"measurement": "IC50", "setting": "hCA II", "result": 0.0141, "unit": "µM"}, {"measurement": "Ki", "setting": "hCA II", "result": "0.00621 ± 0.00101", "unit": "µM"}]}
{"molecule": "4-Bromo-5-(2-bromo-4-hydroxybenzyl)benzene-1,2-diol [Compound 19]", "values": [{"measurement": "IC50", "setting": "AChE", "result": 0.0204, "unit": "µM"}, {"measurement": "Ki", "setting": "AChE", "result": "0.0174 ± 0.00315", "unit": "µM"}]}
{"molecule": "COc1ccc(Cc2cc(OC)c(OC)cc2Br)c(Br)c1", "note": "[Compound 13, 1-Bromo-2-(2-bromo-4-methoxybenzyl)-4,5-dimethoxybenzene]", "values": [{"measurement": "IC50", "setting": "hCA I", "result": 0.0385, "unit": "µM"}, {"measurement": "Ki", "setting": "hCA I", "result": "0.0257 ± 0.00458", "unit": "µM"}, {"measurement": "IC50", "setting": "hCA II", "result": 0.021, "unit": "µM"}, {"measurement": "Ki", "setting": "hCA II", "result": "0.00163 ± 0.00011", "unit": "µM"}]}
{"molecule": "COc1ccc(OC)c(Cc2cc(OC)c(OC)cc2Br)c1", "note": "[Compound 16, 1-Bromo-2-(2,5-dimethoxybenzyl)-4,5-dimethoxybenzene]", "values": [{"measurement": "IC50", "setting": "hCA I", "result": 0.021, "unit": "µM"}, {"measurement": "Ki", "setting": "hCA I", "result": "0.0128 ± 0.00052", "unit": "µM"}, {"measurement": "IC50", "setting": "hCA II", "result": 0.0158, "unit": "µM"}, {"measurement": "Ki", "setting": "hCA II", "result": "0.00777 ± 0.00057", "unit": "µM"}]}
